# Source: patent publication US20110172274A1, “FLUORO-SUBSTITUTED 3,4-DIARYL-4,5-DIHYDRO-1H-PYRAZOLE-1-CARBOXAMIDINE DERIVATIVES HAVING CB1-ANTAGONISTIC ACTIVITY” (priority 2008, published 2011)
# Tests used:
# [1] = target: T1, human cannabinoid CB1 receptors (Homo sapiens, UniProt P21554); experiment: In vitro affinity for cannabinoid-CB1 receptors, [3H]CP-55,940 radioligand binding, CHO cell membranes; details: for Ki: CHO membranes, [3H]CP-55,940, means of at least two independent experiments, read-out: receptor binding h-CB1 receptor Ki; for factor of higher affinity for human CB1 receptors than non-fluorinated analog compound 24: (S)-(-)-enantiomers versus compound 24
# T1 construct: expressed in transfected cells; host or cells: Chinese hamster ovary (CHO) cells, membrane preparations
# Description: In vitro affinity for cannabinoid-CB1 receptors was determined using membrane preparations of Chinese hamster ovary (CHO) cells wherein human cannabinoid CB1 receptors were stably transfected in conjunction with [^3H]CP-55,940 as radioligand. After incubation of a freshly prepared cell membrane preparation with the [^3H]-ligand, with or without addition of compounds of the invention, separation of bound and free ligand was performed by filtration over glassfiber filters. Radioactivity on the filter was measured by liquid scintillation counting. The binding data were either obtained by CEREP (128, rue Danton, 92500 Rueil-Malmaison, France) or at Solvay Pharmaceuticals B.V. (C. J. van Houtenlaan 36, 1381 CP Weesp, The Netherlands).
# [2] = target: T2, human cannabinoid CB2 receptors (Homo sapiens, UniProt P34972); experiment: In vitro affinity for cannabinoid-CB2 receptors, [3H]CP-55,940 radioligand binding, CHO cell membranes; details: means of at least two independent experiments, read-out: receptor binding h-CB2 receptor Ki
# T2 construct: expressed in transfected cells; host or cells: CHO cells, membrane preparations
# Description: In vitro affinity for cannabinoid-CB2 receptors was determined using membrane preparations of CHO cells wherein human cannabinoid CB2 receptors were stably transfected in conjunction with [^3H]CP-55,940 as radioligand. After incubation of a freshly prepared cell membrane preparation with the [^3H]-ligand, with or without addition of compounds of the invention, separation of bound and free ligand was performed by filtration over glassfiber filters. Radioactivity on the filter was measured by liquid scintillation counting.
# rat CB1 receptor = target: T3, rat CB1 receptor (Rattus norvegicus, UniProt P20272); experiment: In vivo cannabinoid-CB1 receptor antagonism, CP-55,940-induced hypotension test in rat; details: for ED50: rat, p.o., anaesthetized male rats, CP-55,940 0.1 mg/kg i.v., read-out: blood pressure rat CB1 receptor ED50 (mg/kg, p.o.)
# T3 construct: Male normotensive rats (225-300 g; Harlan, Horst, The Netherlands) were anaesthetized; from tissue; host or cells: whole animal: male normotensive rats (Harlan)
# Description: In vivo cannabinoid-CB1 receptor antagonism was assessed with the CP-55,940-induced hypotension test in rat. Male normotensive rats (225-300 g; Harlan, Horst, The Netherlands) were anaesthetized with pentobarbital (80 mg/kg ip). Blood pressure was measured, via a cannula inserted into the left carotid artery, by means of a Spectramed DTX-plus pressure transducer (Spectramed B.V., Bilthoven, The Netherlands). After amplification by a Nihon Kohden Carrier Amplifier (Type AP-621G; Nihon Kohden B.V., Amsterdam, The Netherlands), the blood pressure signal was registered on a personal computer (Compaq Deskpro 386s), by means of a Po-Ne-Mah data-acquisition program (Po-Ne-Mah Inc., Storrs, USA). Heart rate was derived from the pulsatile pressure signal. All compounds were administered orally as a microsuspension in 1% methylcellulose 30 minutes before induction of the anesthesia, 60 minutes prior to administration of the CB1 receptor agonist CP-55,940. The injection volume was 10 ml/kg. After haemodynamic stabilization the CB1 receptor agonist CP-55,940 (0.1 mg/kg i.v.) was administered and the hypotensive effect established (Wagner 2001).
# T1 sequence (P21554 whole entry): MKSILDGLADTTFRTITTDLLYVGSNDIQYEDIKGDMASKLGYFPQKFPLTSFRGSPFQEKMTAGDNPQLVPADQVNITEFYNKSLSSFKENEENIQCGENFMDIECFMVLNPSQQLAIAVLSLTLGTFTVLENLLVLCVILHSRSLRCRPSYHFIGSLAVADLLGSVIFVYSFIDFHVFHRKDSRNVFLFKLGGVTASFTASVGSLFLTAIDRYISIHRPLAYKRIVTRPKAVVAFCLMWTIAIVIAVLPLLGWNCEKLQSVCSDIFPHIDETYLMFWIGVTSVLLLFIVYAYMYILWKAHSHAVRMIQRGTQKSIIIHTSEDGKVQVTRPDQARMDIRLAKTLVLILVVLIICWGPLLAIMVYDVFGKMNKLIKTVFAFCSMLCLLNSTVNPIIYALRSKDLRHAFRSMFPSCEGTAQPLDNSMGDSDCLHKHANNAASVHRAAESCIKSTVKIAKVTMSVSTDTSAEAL
# T3 sequence (P20272 whole entry): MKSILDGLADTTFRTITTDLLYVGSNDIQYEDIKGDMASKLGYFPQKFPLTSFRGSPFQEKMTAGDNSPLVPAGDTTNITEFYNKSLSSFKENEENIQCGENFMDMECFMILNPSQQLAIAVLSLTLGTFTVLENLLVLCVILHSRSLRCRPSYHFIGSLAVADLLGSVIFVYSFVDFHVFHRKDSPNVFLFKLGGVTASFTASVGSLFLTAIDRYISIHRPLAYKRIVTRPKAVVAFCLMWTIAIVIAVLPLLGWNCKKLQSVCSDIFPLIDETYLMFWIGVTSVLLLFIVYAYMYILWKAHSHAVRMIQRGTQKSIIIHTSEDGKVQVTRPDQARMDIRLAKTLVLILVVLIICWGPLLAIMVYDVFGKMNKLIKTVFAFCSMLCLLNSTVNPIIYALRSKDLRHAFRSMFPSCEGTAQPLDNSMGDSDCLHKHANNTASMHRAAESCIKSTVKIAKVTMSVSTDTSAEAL
# T2 sequence (P34972 whole entry): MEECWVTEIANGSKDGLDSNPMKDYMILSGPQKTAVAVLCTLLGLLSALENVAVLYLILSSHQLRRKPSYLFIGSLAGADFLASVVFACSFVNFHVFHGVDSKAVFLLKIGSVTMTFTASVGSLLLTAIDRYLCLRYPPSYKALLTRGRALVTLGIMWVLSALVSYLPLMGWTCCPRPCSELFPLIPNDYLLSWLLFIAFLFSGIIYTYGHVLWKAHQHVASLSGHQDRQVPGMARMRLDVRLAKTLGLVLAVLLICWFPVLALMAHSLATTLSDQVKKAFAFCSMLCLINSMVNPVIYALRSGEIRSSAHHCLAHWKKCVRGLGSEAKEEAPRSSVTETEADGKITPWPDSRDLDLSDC
Structure (SMILES),Ki [1] [nM],also measured
"CN/C(=N\S(=O)(=O)N1CCC(C(F)(F)F)CC1)N1CC(c2ccccc2)C(c2ccc(Cl)cc2)=N1 (racemic) [compound 2, N-[(4-(Trifluoromethyl)piperidin-1-yl)sulfonyl]-N′-methyl-3-(4-chlorophenyl)-4-phenyl-4,5-dihydro-(1H)-pyrazole-1-carboxamidine]",3,
"CN/C(=N/S(=O)(=O)N1CCCCC1)N1CC(c2ccccc2)C(c2ccc(Cl)cc2)=N1 (centres unmarked) [compound 21, reference compound]",152,
"CN/C(=N/S(=O)(=O)N1CCCCC1)N1C[C@H](c2ccccc2)C(c2ccc(Cl)cc2)=N1 [compound 24, reference compound]",58,Ki [2]: 3500 nM; ED50 (rat CB1 receptor): 8 mg/kg
"CN(C)/C(=N/S(=O)(=O)N1CCC(F)(F)CC1)N1CC(c2ccccc2)C(c2ccc(Cl)cc2)=N1 (centres unmarked) [compound 7, N^2-[(4,4-Difluoropiperidin-1-yl)sulfonyl]-N^1-dimethyl-3-(4-chlorophenyl)-4-phenyl-4,5-dihydro-(1H)-pyrazole-1-carboxamidine]",25,
"CN=C(NS(=O)(=O)N1CCC(F)(F)CC1)N1C[C@H](c2ccccc2)C(c2ccc(Cl)cc2)=N1 [compound 8, (−)-(4S)—N-[(4,4-difluoropiperidin-1-yl)sulfonyl]-N′-methyl-3-(4-chlorophenyl)-4-phenyl-4,5-dihydro-(1H)-pyrazole-1-carboxamidine]",5,factor of higher affinity for human CB1 receptors than non-fluorinated analog compound 24 [1]: 12 fold
"CN=C(NS(=O)(=O)N1CCC(C(F)(F)F)CC1)N1C[C@@H](c2ccccc2)C(c2ccc(Cl)cc2)=N1 [compound 10, (+)-(4R)—N-[(4-(Trifluoromethyl)piperidin-1-yl)sulfonyl]-N′-methyl-3-(4-chlorophenyl)-4-phenyl-4,5-dihydro-(1H)-pyrazole-1-carboxamidine]",125,"Ki [2]: > 1000 nM; in vivo activity in the hypotension test (rat CB1 receptor; given at 30 mg/kg): devoid of in vivo activity; ED50 (rat CB1 receptor): > 30 mg/kg; affinity for human CB1 receptors, fold less than that of compound 9 ([1]; distomer versus eutomer compound 9): about 40 fold"
"CN=C(NS(=O)(=O)N1CCC(C(F)(F)F)CC1)N1C[C@H](c2ccccc2)C(c2ccc(Cl)cc2)=N1 [compound 9, (−)-(4S)—N-[(4-(Trifluoromethyl)piperidin-1-yl)sulfonyl]-N′-methyl-3-(4-chlorophenyl)-4-phenyl-4,5-dihydro-(1H)-pyrazole-1-carboxamidine]",3,"Ki [2]: 316 nM; in vivo activity after oral administration compared with compound 24 (rat CB1 receptor; oral administration, CP-55,940-induced hypotension test): more active; ED50 (rat CB1 receptor): 2 mg/kg; factor of higher affinity for human CB1 receptors than non-fluorinated analog compound 24 [1]: 19 fold"
"CN=C(NS(=O)(=O)N1CCCC(F)C1)N1CC(c2ccccc2)C(c2ccc(Cl)cc2)=N1 (racemic) [compound 4, N-[(3-Fluoropiperidin-1-yl)sulfonyl]-N′-methyl-3-(4-chlorophenyl)-4-phenyl-4,5-dihydro-(1H)-pyrazole-1-carboxamidine]",16,melting point: 170 to 171 °C
"CNC(=NS(=O)(=O)N1CCCCC1)N1C[C@@H](c2ccccc2)C(c2ccc(Cl)cc2)=N1 [compound 25, reference compound]",763,
"CCN=C(NS(=O)(=O)N1CCC(F)(F)CC1)N1CC(c2ccccc2)C(c2ccc(Cl)cc2)=N1 (racemic) [compound 6, N-[(4,4-Difluoropiperidin-1-yl)sulfonyl]-N′-ethyl-3-(4-chlorophenyl)-4-phenyl-4,5-dihydro-(1H)-pyrazole-1-carboxamidine]",10,
"CN=C(NS(=O)(=O)N1CCCC(F)(F)C1)N1CC(c2ccccc2)C(c2ccc(Cl)cc2)=N1 (racemic) [compound 5, N-[(3,3-Difluoropiperidin-1-yl)sulfonyl]-N′-methyl-3-(4-chlorophenyl)-4-phenyl-4,5-dihydro-(1H)-pyrazole-1-carboxamidine]",10,melting point: 166 to 167 °C
"CN=C(NS(=O)(=O)N1CCC(F)(F)CC1)N1CC(c2ccccc2)C(c2ccc(Cl)cc2)=N1 (racemic) [compound 1, N-[(4,4-difluoropiperidin-1-yl)sulfonyl]-N′-methyl-3-(4-chlorophenyl)-4-phenyl-4,5-dihydro-(1H)-pyrazole-1-carboxamidine]",10,
"CNC(=NS(=O)(=O)N1CCC(F)CC1)N1CC(c2ccccc2)C(c2ccc(Cl)cc2)=N1 (racemic) [compound 3, N-[(4-Fluoropiperidin-1-yl)sulfonyl]-N′-methyl-3-(4-chlorophenyl)-4-phenyl-4,5-dihydro-(1H)-pyrazole-1-carboxamidine]",5,
